Measured values as given in US20110034526A1, “Benzimidazole Compounds” (Wyeth LLC, priority 2007, published 2011).

How the values were obtained:
human LXRα = target: T1, human LXRα (Homo sapiens, UniProt Q13133); assay: Ligand-binding test procedure for human LXRα (3H T0901317 tracer, flash plates); details: biotinylated hLXRα, tracer 3H T0901317
T1 construct: biotin (biotinylated); made in house; host or cells: E. coli (crude extract)
T1 sequence (Q13133 1-447): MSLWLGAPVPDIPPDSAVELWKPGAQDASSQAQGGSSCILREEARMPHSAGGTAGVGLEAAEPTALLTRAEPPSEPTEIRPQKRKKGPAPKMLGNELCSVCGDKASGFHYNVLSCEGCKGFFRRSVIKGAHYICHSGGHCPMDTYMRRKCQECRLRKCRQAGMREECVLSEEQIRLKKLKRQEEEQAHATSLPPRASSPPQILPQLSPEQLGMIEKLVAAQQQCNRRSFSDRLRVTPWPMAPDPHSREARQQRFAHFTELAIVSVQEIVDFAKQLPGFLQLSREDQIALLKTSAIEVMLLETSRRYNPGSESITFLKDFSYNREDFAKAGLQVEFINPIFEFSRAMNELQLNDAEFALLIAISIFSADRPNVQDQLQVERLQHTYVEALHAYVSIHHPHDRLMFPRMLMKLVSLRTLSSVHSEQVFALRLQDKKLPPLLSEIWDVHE
Method: Receptor source: E. coli extract from cells expressing biotinylated hLXRcc. Extract was made in a similar buffer as above, but with 50 mM TRIS.
Washed streptavidin and coated flash plates with wash buffer. Diluted receptor extract to give Bmax ˜4000 cpm and add to the wells. Wrapped the plates in aluminum foil and stored them at +4° C. over night.
(§1) Made a dilution series in DMSO of the test ligands. Made a 5 nM solution of the radioactive tracer in buffer. Mixed 250 μl diluted tracer with 5 μl of the test ligand from each concentration of the dilution series. Washed the receptor-coated flash plates. Added 200 μl per well of the ligand/radiolabel mixture to the receptor-coated flash plates. Wrapped the plates in aluminum foil and incubate at +4° C. over night.
Aspirated wells, and wash the flashed plates. Sealed the plate. Measured the remaining radioactivity in the plate.

human LXRβ = target: T2, human LXRβ (Homo sapiens, UniProt P55055); assay: Ligand-binding test procedure for human LXRβ (3H T0901317 tracer, flash plates)
T2 construct: biotin (biotinylated); made in house; host or cells: E. coli (crude extract)
T2 sequence (P55055 1-460): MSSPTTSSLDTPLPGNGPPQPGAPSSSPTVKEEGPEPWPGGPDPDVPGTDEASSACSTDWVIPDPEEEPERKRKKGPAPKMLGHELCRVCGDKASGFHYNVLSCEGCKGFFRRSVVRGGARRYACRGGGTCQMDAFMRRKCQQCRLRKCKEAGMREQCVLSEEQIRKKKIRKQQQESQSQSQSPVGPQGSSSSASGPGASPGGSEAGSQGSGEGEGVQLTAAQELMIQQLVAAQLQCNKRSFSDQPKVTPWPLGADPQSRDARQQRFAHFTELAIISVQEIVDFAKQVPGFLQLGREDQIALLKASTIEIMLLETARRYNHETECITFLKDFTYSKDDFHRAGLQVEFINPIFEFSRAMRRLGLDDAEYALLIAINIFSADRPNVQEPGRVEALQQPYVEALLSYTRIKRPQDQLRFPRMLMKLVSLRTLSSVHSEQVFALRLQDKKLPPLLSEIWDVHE
Method: Receptor source: E. coli extracted from cells expressing biotinylated hLXRβ. Extract was made in a similar buffer as above, but with 50 mM TRIS.
Washed streptavidin and coated flash plates with wash buffer. Diluted receptor extract to give Bmax ˜4000 cpm and add to the wells. Wrapped the plates in aluminum foil and stored them at +4° C. overnight.
as §1
Aspirated wells, and washed the flashed plates. Sealed the plate. Measured the remaining radioactivity in the plate.

## Cc1nc2c(C(F)(F)F)cccc2n1-c1cccc(Oc2cccc(S(=O)(=O)CCC(C)(C)O)c2)c1 [Example 11, 2-methyl-4-[(3-{3-[2-methyl-4-(trifluoromethyl)-1H-benzimidazol-1-yl]phenoxy}-phenyl)sulfonyl]butan-2-ol]
Human LXRα
  IC50: 7 µM
Human LXRβ
  IC50: 0.29 µM

## Cc1nc2c(C(F)(F)F)cccc2n1-c1cccc(Oc2ccccc2S(C)(=O)=O)c1 [Example 12, 2-methyl-1-{3-[2-(methylsulfonyl)phenoxy]phenyl}-4-(trifluoromethyl)-1H-benzimidazole]
Human LXRα
  IC50: > 1 µM
Human LXRβ
  IC50: > 1 µM

## Cc1nc2c(C(F)(F)F)cccc2n1-c1cccc(Oc2ccccc2S(=O)(=O)CCCO)c1 [Example 13, 3-[(2-{3-[2-methyl-4-(trifluoromethyl)-1H-benzimidazol-1-yl]phenoxy}phenyl)sulfonyl]propan-1-ol]
Human LXRα
  IC50: > 1 µM
Human LXRβ
  IC50: 1.9 µM

## Cc1nc2c(C(F)(F)F)cccc2n1-c1cccc(Oc2ccc(S(C)(=O)=O)cc2)c1 [Example 14, 2-methyl-1-{3-[4-(methylsulfonyl)phenoxy]phenyl}-4-(trifluoromethyl)-1H-benzimidazole]
Human LXRα
  IC50: 2.95 µM
Human LXRβ
  IC50: 0.435 µM

## Cc1nc2c(C(F)(F)F)cccc2n1-c1cccc(Oc2ccc(S(=O)(=O)CCCO)cc2)c1 [Example 15, 3-[(4-{3-[2-methyl-4-(trifluoromethyl)-1H-benzimidazol-1-yl]phenoxy}phenyl)sulfonyl]propan-1-ol]
Human LXRα
  IC50: 4.84 µM
Human LXRβ
  IC50: 0.945 µM

## CCCS(=O)(=O)c1cccc(Oc2cccc(-n3c(C)nc4c(Cl)cccc43)c2)c1 [Example 43, 4-chloro-2-methyl-1-{3-[3-(propylsulfonyl)phenoxy]phenyl}-1H-benzimidazole]
Human LXRα
  IC50: 0.014 µM
Human LXRβ
  IC50: 0.0037 µM

## Cc1nc2c(Cl)cccc2n1-c1cccc(Oc2cc(F)cc(S(C)(=O)=O)c2)c1 [Example 44, 4-chloro-1-{3-[3-fluoro-5-(methylsulfonyl)phenoxy]phenyl}-2-methyl-1H-benzimidazole]
Human LXRα
  IC50: 0.012 µM
Human LXRβ
  IC50: 0.0035 µM

## CCS(=O)(=O)c1cc(F)cc(Oc2cccc(-n3c(C)nc4c(Cl)cccc43)c2)c1 [Example 45, 4-chloro-1-{3-[3-(ethylsulfonyl)-5-fluorophenoxy]phenyl}-2-methyl-1H-benzimidazole]
Human LXRα
  IC50: 0.031 µM
Human LXRβ
  IC50: 0.0066 µM

## Cc1nc2c(Cl)cccc2n1-c1cccc(Oc2cc(Cl)cc(S(C)(=O)=O)c2)c1 [Example 46, 4-chloro-1-{3-[3-chloro-5-(methylsulfonyl)phenoxy]phenyl}-2-methyl-1H-benzimidazole]
Human LXRα
  IC50: 0.036 µM
Human LXRβ
  IC50: 0.0036 µM

## CCS(=O)(=O)c1ccc(Oc2cccc(-n3c(C)nc4c(Cl)cccc43)c2)cc1 [Example 49, 4-chloro-1-{3-[4-(ethylsulfonyl)phenoxy]phenyl}-2-methyl-1H-benzimidazole]
Human LXRα
  IC50: 0.085 µM
Human LXRβ
  IC50: 0.017 µM

## Cc1nc2c(Cl)cccc2n1-c1cccc(Oc2ccccc2S(C)(=O)=O)c1 [Example 50, 4-chloro-2-methyl-1-{3-[2-(methylsulfonyl)phenoxy]phenyl}-1H-benzimidazole]
Human LXRα
  IC50: 0.746 µM
Human LXRβ
  IC50: 0.17 µM

## Cc1nc2c(Cl)cccc2n1-c1cccc(Oc2cc(S(C)(=O)=O)ccc2Br)c1 [Example 51, 1-{3-[2-bromo-5-(methylsulfonyl)phenoxy]phenyl}-4-chloro-2-methyl-1H-benzimidazole]
Human LXRα
  IC50: 0.646 µM
Human LXRβ
  IC50: 0.1 µM

## Cc1nc2c(Cl)cccc2n1-c1cccc(Oc2ccc(S(C)(=O)=O)cc2F)c1 [Example 52, 4-chloro-1-{3-[2-fluoro-4-(methylsulfonyl)phenoxy]phenyl}-2-methyl-1H-benzimidazole]
Human LXRα
  IC50: 3 µM
Human LXRβ
  IC50: 0.357 µM

## Cc1nc2c(Cl)cccc2n1-c1cccc(Oc2cccc(S(=O)(=O)CCC(C)C)c2)c1 [Example 53]
Human LXRα
  IC50: 0.258 µM
Human LXRβ
  IC50: 0.02 µM

## CCCS(=O)(=O)c1cccc(Oc2ccc(Cl)c(-n3c(C)nc4c(Cl)cccc43)c2)c1 [Example 56, 4-chloro-1-{2-chloro-5-[3-(propylsulfonyl)phenoxy]phenyl}-2-methyl-1H-benzimidazole]
Human LXRα
  IC50: 2.5 µM
Human LXRβ
  IC50: 0.164 µM

## CCS(=O)(=O)c1cc(F)cc(Oc2ccc(Cl)c(-n3c(C)nc4c(Cl)cccc43)c2)c1 [Example 59, 4-chloro-1-{2-chloro-5-[3-(ethylsulfonyl)-5-fluorophenoxy]phenyl}-2-methyl-1H-benzimidazole]
Human LXRα
  IC50: 2 µM
Human LXRβ
  IC50: 0.432 µM

## Cc1nc2c(Cl)cccc2n1-c1cc(Oc2ccc(S(C)(=O)=O)cc2)ccc1Cl [Example 61, 4-chloro-1-{2-chloro-5-[4-(methylsulfonyl)phenoxy]phenyl}-2-methyl-1H-benzimidazole]
Human LXRα
  IC50: 3 µM
Human LXRβ
  IC50: 0.357 µM

## CCS(=O)(=O)c1ccc(Oc2ccc(Cl)c(-n3c(C)nc4c(Cl)cccc43)c2)cc1 [Example 62, 4-chloro-1-{2-chloro-5-[4-(ethylsulfonyl)phenoxy]phenyl}-2-methyl-1H-benzimidazole]
Human LXRα
  IC50: 0.812 µM
Human LXRβ
  IC50: 0.065 µM

## Cc1nc2c(Cl)cccc2n1-c1cc(Oc2ccccc2S(C)(=O)=O)ccc1Cl [Example 63, 4-chloro-1-{2-chloro-5-[2-(methylsulfonyl)phenoxy]phenyl}-2-methyl-1H-benzimidazole]
Human LXRα
  IC50: 2.5 µM
Human LXRβ
  IC50: 0.309 µM

## Cc1nc2c(C(F)(F)F)cccc2n1-c1ccc(Oc2cccc(S(C)(=O)=O)c2)cc1 [Example 64, 2-methyl-1-{4-[3-(methylsulfonyl)phenoxy]phenyl}-4-(trifluoromethyl)-1H-benzimidazole]
Human LXRα
  IC50: 0.0084 µM
Human LXRβ
  IC50: 0.0017 µM

## CCc1nc2c(C(F)(F)F)cccc2n1-c1ccc(Oc2cccc(S(=O)(=O)CC)c2)cc1 [Example 68, 2-ethyl-1-{4-[3-(ethylsulfonyl)phenoxy]phenyl}-4-(trifluoromethyl)-1H-benzimidazole]
Human LXRα
  IC50: > 1 µM
Human LXRβ
  IC50: 1.23 µM

## CS(=O)(=O)c1cccc(Oc2ccc(-n3c(C(F)(F)F)nc4c(C(F)(F)F)cccc43)cc2)c1 [Example 70, 1-{4-[3-(methylsulfonyl)phenoxy]phenyl}-2,4-bis(trifluoromethyl)-1H-benzimidazole]
Human LXRα
  IC50: 4.5 µM
Human LXRβ
  IC50: 0.278 µM

## CS(=O)(=O)c1cc(F)cc(Oc2ccc(-n3c(C(F)(F)F)nc4c(C(F)(F)F)cccc43)cc2)c1 [Example 72, 1-{4-[3-fluoro-5-(methylsulfonyl)phenoxy]phenyl}-2,4-bis(trifluoromethyl)-1H-benzimidazole]
Human LXRα
  IC50: 4.7 µM
Human LXRβ
  IC50: 0.512 µM

## CCS(=O)(=O)c1cccc(Oc2cccc(-n3c(C(F)(F)F)nc4c(C(F)(F)F)cccc43)c2)c1 [Example 77, 1-{3-[3-(ethylsulfonyl)phenoxy]phenyl}-2,4-bis(trifluoromethyl)-1H-benzimidazole]
Human LXRα
  IC50: 2.5 µM
Human LXRβ
  IC50: 0.198 µM

## CC(C)S(=O)(=O)c1cccc(Oc2cccc(-n3c(C(F)(F)F)nc4c(C(F)(F)F)cccc43)c2)c1 [Example 78, 1-{3-[3-(isopropylsulfonyl)phenoxy]phenyl}-2,4-bis(trifluoromethyl)-1H-benzimidazole]
Human LXRα
  IC50: 1.37 µM
Human LXRβ
  IC50: 0.092 µM

## CS(=O)(=O)c1cccc(COc2ccc(Cl)c(-n3cnc4c(C(F)(F)F)cccc43)c2)c1 [Example 84, 1-(2-chloro-5-{[3-(methylsulfonyl)benzyl]oxy}phenyl)-4-(trifluoromethyl)-1H-benzimidazole]
Human LXRα
  IC50: 1.5 µM
Human LXRβ
  IC50: 0.11 µM

## CCc1nc2c(C(F)(F)F)cccc2n1-c1ccc(OCc2cccc(S(C)(=O)=O)c2)cc1 [Example 85, 2-ethyl-1-(4-{[3-(methylsulfonyl)benzyl]oxy}phenyl)-4-(trifluoromethyl)-1H-benzimidazole]
Human LXRα
  IC50: 5.07 µM
Human LXRβ
  IC50: 1.89 µM

## CS(=O)(=O)c1cccc(COc2ccc(-n3c(C(F)(F)F)nc4c(C(F)(F)F)cccc43)cc2)c1 [Example 86, 1-(4-{[3-(methylsulfonyl)benzyl]oxy}phenyl)-2,4-bis(trifluoromethyl)-1H-benzimidazole]
Human LXRα
  IC50: > 1 µM
Human LXRβ
  IC50: > 1 µM
